From patent US10716869B2, “Radiolabeled macrocyclic EGFR inhibitor” (Oncodesign SA, priority 2016, dated 2020) come the findings set out here.

Data set [1] deals with T1, EGFR L858R (human, 672-1210) (Homo sapiens, UniProt P00533, L858R).
T1 construct: (human, 672-1210)
Nature of the data set: radiometric protein kinase assay (33PanQinase Activity Assay). Particulars: Tests 1-3 are repeat determinations; read-out: Biochemical IC50 EGFR L858R. As for the experimental part: (§1) The compounds were tested in 100% DMSO, all recombinant protein kinases and substrates with respective concentration are described in table 1.

In data set [2] the target is T2, EGFR T790M/L858R (human, 672-1210) (Homo sapiens, UniProt P00533, L858R/T790M).
T2 construct: (human, 672-1210)
The data set is described as above. The settings on record: Tests 1-3 are repeat determinations; read-out: Biochemical IC50 EGFR L858R/T790M. As for the experimental part:
as §1

In data set [3] the target is T3, EGFR wt (human, 672-1210) (Homo sapiens, UniProt P00533).
T3 construct: (human, 672-1210)
The data set is described as above. Particulars: Tests 1-3 are repeat determinations; read-out: Biochemical IC50 EGFR WT (activated). On the procedure:
as §1

The test system of data set [4] is NCI-H3255 (EGFR_L858R). Nature of the data set: MTS cell viability assay, 72 hours. Particulars: Homo sapiens, NCI-H3255, 72 h, read-out: Cellular IC50 NCI-H3255 (EGFR_L858R). In kind it is cell-based, Human. As for the experimental part: (§2) The cell lines that were used to assay the cellular activity of the compounds are detailed in table 3 hereafter:
(§3) Tumor cells grew as monolayer at 37° C. in a humidified atmosphere (5% CO2) in complete culture medium adapted to each cell line. The cellular activity of the compounds was assessed by measuring the viability of cancer cell in MTS assay using a tetrazolium compound (MTS, 3-(4,5-dimethylthiazol-2-yl)-5-(3-carboxymethoxy phenyl)-2-(4-sulfophenyl)-2H-tetrazolium) and an electron coupling reagent named PMS (phenazine methosulfate). MTS is bioreduced by cells into a formazan product that is directly soluble in culture medium without processing. The cells were seeded 24 hours before treatment at the appropriate density in their culture medium to be near 90% of confluence at the end of experiment in vehicle treated conditions. After addition of compounds, the cells were incubated for 72 hours.
In general terms: Tetrazolium assays rely on reduction of a dye to a coloured formazan, in cell work by metabolically active cells.

For data set [5], the system named is NCI-H441 (EGFR WT). Description: MTS cell viability assay, 72 hours. In kind it is cell-based, Human. The settings on record: Homo sapiens, NCI-H441, 72 h, read-out: Cellular IC50 NCI-H441 (EGFR WT). On the procedure:
as §2, §3

Data set [6] relates to MCF-7. Nature of the data set: MTS cell viability assay, 72 hours. Format: cell-based. The settings on record: Homo sapiens, MCF7, 72 h, negative control, does not express EGFR, read-out: Cellular IC50 MCF-7. On the procedure:
as §2, §3

Data set [7] deals with NCI-H1975 (EGFR L858R/T790M). Description: MTS cell viability assay, 72 hours. In kind it is cell-based. Particulars: Homo sapiens, NCI-H1975, 72 h, read-out: Cellular IC50 NCI-H1975 (EGFR L858R/T790M). On the procedure: as §2, §3
Data set [8] is described as follows: kinetic solubility in PBS at pH 7.4. Format: physicochemical. Particulars: pH 7.4, aqueous buffer, kinetic from dmso stock. As for the experimental part:
The kinetic solubility of the compounds was assessed in PBS at pH 7.4.

Data set [9] in a line: metabolic microsomal stability, human liver microsomes. In kind it is in vitro ADME. The settings on record: pH 7.4, 0.5 mg/mL protein. On the procedure: (§4) Metabolic microsomal stability was performed on human and rat liver microsomes. Microsomes (final protein concentration 0.5 mg/mL), 0.1 M phosphate buffer pH 7.4 and test compound (final substrate concentration=3 μM; final DMSO concentration=0.25%) are pre-incubated at 37° C. prior to the addition of NADPH (final concentration=1 mM) to initiate the reaction. Analysis is done with generic LC-MS/MS conditions to determine half-life and intrinsic clearance using standard equations. […] In human, Compound (Ia) metabolic stability was better than in rat and favorable for clinical studies.
Background: Microsomes from liver hold many membrane-bound enzymes, among them those of drug oxidation.

Data set [10] in a line: metabolic microsomal stability, rat liver microsomes. Format: in vitro ADME. The settings on record: pH 7.4, 0.5 mg/mL protein. On the procedure:
as §4

Data set [11] has as its system WT NCI-H441 tumors. Description: in vivo specificity: competition for uptake of Compound (I). Particulars: gefitinib 2 mg/rat or Compound (Ia) 1 mg/rat. The arrangement: species or system rats.
Data set [12] deals with NCI-H3255 tumors (simple mutation). The description is as above. More on the design: species or system rats. The settings on record: gefitinib 2 mg/rat or Compound (Ia) 1 mg/rat.
The subject of data set [13] is NCI-H1975 tumors (double mutation). The description is as above. More on the design: species or system rats. The settings on record: gefitinib 2 mg/rat or Compound (Ia) 1 mg/rat.
Data set [14] concerns the target EGFR phosphorylation in NCI-H441 (Homo sapiens, UniProt P00533). Description: EGFR Y1068 phosphorylation, Western blot. Particulars: NCI-H441, 10 ng/ml EGF. In general terms: A western blot detects proteins with antibodies after separation by electrophoresis.
The target in data set [15] is constitutively active EGFR in NCI-H3255 (Homo sapiens, UniProt P00533, L858R). Nature of the data set: EGFR Y1068 phosphorylation, Western blot.
Data set [16] addresses double mutant EGFR expressed by NCI-H1975 (Homo sapiens, UniProt P00533, L858R/T790M). Description: EGFR Y1068 phosphorylation, Western blot.

≈ marks a conversion by molar mass, not a printed value. Where “and” joins values, the source holds several entries; their conditions need not be identical. Equal values may be shown once.

T3 sequence (P00533 672-1210): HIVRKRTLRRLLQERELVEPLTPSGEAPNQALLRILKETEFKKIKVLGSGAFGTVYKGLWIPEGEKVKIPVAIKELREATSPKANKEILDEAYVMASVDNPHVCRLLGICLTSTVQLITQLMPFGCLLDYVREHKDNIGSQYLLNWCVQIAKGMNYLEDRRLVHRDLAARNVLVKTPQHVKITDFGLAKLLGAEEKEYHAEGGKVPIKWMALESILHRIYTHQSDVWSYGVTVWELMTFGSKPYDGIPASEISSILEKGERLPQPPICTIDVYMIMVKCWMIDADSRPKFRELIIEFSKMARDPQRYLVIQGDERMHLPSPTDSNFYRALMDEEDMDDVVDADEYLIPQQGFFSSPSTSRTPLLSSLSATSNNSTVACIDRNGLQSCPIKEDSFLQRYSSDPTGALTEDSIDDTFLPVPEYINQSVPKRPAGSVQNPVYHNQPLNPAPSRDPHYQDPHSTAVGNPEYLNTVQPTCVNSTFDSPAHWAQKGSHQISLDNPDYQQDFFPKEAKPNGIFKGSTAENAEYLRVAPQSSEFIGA
T2 sequence (P00533 672-1210 T790M/L858R): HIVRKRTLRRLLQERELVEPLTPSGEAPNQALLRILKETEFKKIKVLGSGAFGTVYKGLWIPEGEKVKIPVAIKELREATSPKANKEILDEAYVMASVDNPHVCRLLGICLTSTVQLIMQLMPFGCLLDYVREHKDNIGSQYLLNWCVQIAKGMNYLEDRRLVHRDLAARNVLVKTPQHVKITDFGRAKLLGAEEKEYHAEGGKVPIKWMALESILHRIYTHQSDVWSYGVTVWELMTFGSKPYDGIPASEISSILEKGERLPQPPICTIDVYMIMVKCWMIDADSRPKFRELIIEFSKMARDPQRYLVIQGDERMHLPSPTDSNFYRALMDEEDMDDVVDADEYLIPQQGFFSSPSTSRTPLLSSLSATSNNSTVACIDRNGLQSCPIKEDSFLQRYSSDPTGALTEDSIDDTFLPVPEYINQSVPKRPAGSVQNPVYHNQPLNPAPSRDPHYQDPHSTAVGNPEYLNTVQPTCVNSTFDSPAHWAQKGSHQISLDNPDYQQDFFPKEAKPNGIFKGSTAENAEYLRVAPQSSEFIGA
T1 sequence (P00533 672-1210 L858R): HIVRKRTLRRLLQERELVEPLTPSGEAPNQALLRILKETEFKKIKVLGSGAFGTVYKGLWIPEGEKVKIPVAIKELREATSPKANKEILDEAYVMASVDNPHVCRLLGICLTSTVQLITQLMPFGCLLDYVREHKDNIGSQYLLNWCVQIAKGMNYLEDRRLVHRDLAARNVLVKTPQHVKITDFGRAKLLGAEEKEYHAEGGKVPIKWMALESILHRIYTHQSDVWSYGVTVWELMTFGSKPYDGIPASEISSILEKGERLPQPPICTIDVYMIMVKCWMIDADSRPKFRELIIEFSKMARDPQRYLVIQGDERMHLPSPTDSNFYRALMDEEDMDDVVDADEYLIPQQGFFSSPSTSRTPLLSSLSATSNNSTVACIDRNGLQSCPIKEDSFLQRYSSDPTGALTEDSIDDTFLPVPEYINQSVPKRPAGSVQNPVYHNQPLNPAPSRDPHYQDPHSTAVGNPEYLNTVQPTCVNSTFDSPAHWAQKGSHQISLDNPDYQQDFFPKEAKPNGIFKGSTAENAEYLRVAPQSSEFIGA
Sequence of EGFR phosphorylation in NCI-H441 (P00533 25-1210): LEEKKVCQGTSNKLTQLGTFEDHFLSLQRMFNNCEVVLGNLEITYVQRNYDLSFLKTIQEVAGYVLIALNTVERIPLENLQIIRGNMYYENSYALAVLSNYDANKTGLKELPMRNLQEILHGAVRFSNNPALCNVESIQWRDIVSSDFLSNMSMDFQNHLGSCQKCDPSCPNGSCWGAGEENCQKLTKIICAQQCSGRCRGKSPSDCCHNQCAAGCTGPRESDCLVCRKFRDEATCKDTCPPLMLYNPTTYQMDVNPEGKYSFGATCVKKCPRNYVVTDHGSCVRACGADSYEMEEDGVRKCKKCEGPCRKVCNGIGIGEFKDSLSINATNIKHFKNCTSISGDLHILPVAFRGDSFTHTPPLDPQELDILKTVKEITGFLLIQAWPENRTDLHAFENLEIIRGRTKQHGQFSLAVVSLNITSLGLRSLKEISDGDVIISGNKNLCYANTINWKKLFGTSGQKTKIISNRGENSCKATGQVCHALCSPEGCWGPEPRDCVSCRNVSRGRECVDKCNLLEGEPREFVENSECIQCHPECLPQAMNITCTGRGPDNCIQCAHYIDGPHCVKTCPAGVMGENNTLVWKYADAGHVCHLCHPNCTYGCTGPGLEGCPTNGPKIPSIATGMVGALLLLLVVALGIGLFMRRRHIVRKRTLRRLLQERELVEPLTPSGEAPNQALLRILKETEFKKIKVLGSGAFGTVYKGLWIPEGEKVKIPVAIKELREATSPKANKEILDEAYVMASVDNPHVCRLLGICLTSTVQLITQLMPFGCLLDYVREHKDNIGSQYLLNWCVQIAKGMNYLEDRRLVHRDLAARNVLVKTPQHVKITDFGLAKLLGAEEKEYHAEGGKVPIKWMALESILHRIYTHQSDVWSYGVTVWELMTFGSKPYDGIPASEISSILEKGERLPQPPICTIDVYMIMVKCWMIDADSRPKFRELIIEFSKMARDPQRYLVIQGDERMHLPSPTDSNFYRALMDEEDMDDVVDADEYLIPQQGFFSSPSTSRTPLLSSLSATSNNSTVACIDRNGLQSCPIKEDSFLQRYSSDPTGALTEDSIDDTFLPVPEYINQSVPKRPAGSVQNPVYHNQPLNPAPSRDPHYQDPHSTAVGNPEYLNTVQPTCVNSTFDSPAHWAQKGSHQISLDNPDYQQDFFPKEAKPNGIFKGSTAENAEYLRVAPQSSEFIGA
Sequence of double mutant EGFR expressed by NCI-H1975 (P00533 25-1210 T790M/L858R): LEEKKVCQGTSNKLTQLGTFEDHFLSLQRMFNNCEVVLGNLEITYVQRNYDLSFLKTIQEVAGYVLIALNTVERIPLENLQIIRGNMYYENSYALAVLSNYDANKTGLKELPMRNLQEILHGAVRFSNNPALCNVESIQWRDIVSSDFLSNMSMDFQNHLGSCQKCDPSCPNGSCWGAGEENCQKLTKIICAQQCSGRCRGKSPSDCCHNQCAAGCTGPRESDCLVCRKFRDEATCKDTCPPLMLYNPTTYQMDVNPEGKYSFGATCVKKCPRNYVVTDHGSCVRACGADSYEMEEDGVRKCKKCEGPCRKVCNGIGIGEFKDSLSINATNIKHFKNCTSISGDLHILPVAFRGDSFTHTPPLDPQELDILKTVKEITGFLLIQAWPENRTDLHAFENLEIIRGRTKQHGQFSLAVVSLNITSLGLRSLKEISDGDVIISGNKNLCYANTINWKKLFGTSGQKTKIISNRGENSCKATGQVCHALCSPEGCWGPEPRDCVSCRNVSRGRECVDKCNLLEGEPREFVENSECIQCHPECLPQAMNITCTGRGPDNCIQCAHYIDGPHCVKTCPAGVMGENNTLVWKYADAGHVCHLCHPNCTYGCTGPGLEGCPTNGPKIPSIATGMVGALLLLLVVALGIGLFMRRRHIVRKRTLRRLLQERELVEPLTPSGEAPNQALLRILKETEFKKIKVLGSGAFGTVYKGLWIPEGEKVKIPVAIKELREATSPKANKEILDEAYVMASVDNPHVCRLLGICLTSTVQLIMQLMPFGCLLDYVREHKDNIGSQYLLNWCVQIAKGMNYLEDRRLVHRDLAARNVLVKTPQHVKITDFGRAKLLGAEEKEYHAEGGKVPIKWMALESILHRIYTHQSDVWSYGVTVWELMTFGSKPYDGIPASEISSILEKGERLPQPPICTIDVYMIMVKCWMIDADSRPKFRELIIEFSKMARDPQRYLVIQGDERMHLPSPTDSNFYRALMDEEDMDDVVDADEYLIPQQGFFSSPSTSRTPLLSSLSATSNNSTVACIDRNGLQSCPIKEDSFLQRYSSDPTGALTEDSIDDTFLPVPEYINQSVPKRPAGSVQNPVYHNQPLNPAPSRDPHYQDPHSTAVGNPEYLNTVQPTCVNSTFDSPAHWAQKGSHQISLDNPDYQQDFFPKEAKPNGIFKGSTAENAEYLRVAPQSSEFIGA

As usually defined, the kinetic solubility is solubility judged after dilution from a stock solution rather than from solid. The microsomal CLint is a measure of how fast metabolising enzymes remove a compound, apart from limits set by blood flow. For the compound `CC(C)C1NC(=O)Cc2ccc(Cl)cc2Nc2ncnc3cc(OCCF)c(cc23)OCCCNC1=O` (stereo not drawn) [Compound (Ia)], the IC50 in [1] is 3 nM and 8 nM and 4.1 nM; in data set [2] it was 372 nM and 990 nM and 246 nM; in data set [3] it was 3.2 nM and 5 nM and 5.7 nM; in [4], 6 ± 2 nM; in data set [5], 34700 ± 24000 nM; in data set [6], 62100 nM. The IC50 in [7] came to 5000 ± 1400 nM. In [8], this compound showed a kinetic solubility of 88 µM (≈ 46.6 µg/mL). For the same compound, the intrinsic clearance (microsomal CLint) at 3 μM in data set [9] amounted to 7.76 ± 2.53 µL/min/mg; in data set [10], 37.9 ± 1.89 µL/min/mg. Further, the figures for the half-life at 3 μM in data set [9] (read-out: human microsomal stability t1/2) and in data set [10] (read-out: rat microsomal stability t1/2) were 2.98 h and 0.608 h, respectively. Further, in [11], the “change of uptake of Compound (I) after competition” value turned out to be 5%. Besides, the “decrease of T/M ratios of Compound (I) by competition” value in data set [12] stood at 52%. Moreover, the “change of T/M ratios of Compound (I) after competition” value in data set [13] is given as −55%. The “inhibition of EGF-induced EGFR Y1068 phosphorylation” value in data set [14] is “almost full inhibition observed at 1 μM”. For the same compound, in data set [15], the “concentration at which full inhibition of constitutively active EGFR was observed” value is listed as roughly 100 nM. Besides, the “inhibition of constitutively active double mutant EGFR” value in data set [16] is reported as “partially inhibit EGFR activity at 10 μM”.
